Source: US20230138395A1, “PHARMACEUTICAL COMPOSITIONS OF A THERAPEUTIC POLYENE MACROLIDE AND METHODS OF THEIR USE” (priority 2020, published 2023)
In brackets after ≈: the same amount, converted by molar mass.

Experiments:
C. albicans SC5314 [1] = assay: In vitro activity (MFC) against the infecting strain, Example 18; format: cell-based, Candida albicans
[2] = tested on: all Aspergillus strains tested; assay: MFC determination, summary; format: cell-based
[3] = tested on: individual Aspergillus spp. (Table 13, species not given); assay: MIC testing (CLSI M38-A2), Table 13; format: cell-based; details: Aspergillus sp. of Table 13, caspofungin read as MEC
C. krusei strains [4] = assay: MFC determination; format: cell-based
Penicillium strains [5] = assay: MIC testing (CLSI M38-A2); format: cell-based, Penicillium spp.
[6] = tested on: Fusarium strains (Table 18); assay: MFC determination, Table 18; format: cell-based, Fusarium spp.
Penicillium strains [7] = assay: MFC determination; format: cell-based, Penicillium spp.
C. tropicalis = assay: MFC determination; format: cell-based
[8] = tested on: individual Aspergillus spp. (Table 15, species not named); assay: MFC determination, Table 15; format: cell-based; details: Aspergillus sp. of Table 15
[9] = tested on: individual Aspergillus spp. (Table 13, species not given); assay: MFC determination, Table 13; format: cell-based; details: Aspergillus sp. of Table 13
all Candida strains = assay: MIC testing (CLSI M27-A3), summary; format: cell-based
Candida albicans [10] = assay: MFC determination; format: cell-based; details: for MFC Range: in µg/mL
Fusarium strains [11] = assay: MIC testing (CLSI M38-A2), Table 17; format: cell-based, Fusarium spp.; details: Fusarium strains (Table 17)
[12] = tested on: all Aspergillus strains tested; assay: MIC testing (CLSI M38-A2), summary; format: cell-based; details: caspofungin read as MEC
[13] = tested on: individual Aspergillus spp. (Table 12, species not named); assay: MFC determination, Table 12; format: cell-based; details: Aspergillus sp. of Table 12
[14] = tested on: individual Aspergillus spp. (Table 12, species not named); assay: MIC testing (CLSI M38-A2), Table 12; format: cell-based; details: Aspergillus sp. of Table 12, caspofungin read as MEC
[15] = tested on: individual Aspergillus spp. (Table 14, species not named); assay: MFC determination, Table 14; format: cell-based; details: Aspergillus sp. of Table 14
C. parapsilosis = assay: MFC determination; format: cell-based
Cr. neoformans strains = assay: MIC testing (CLSI M27-A3, YNB, 72 h); format: cell-based, Cryptococcus neoformans
[16] = tested on: individual Aspergillus spp. (Table 15, species not named); assay: MIC testing (CLSI M38-A2), Table 15; format: cell-based; details: Aspergillus sp. of Table 15, caspofungin read as MEC
C. krusei strains [17] = assay: MIC testing (CLSI M27-A3); format: cell-based
Candida albicans [18] = assay: MIC testing (CLSI M27-A3); format: cell-based; details: for MIC Range: in µg/mL
C. glabrata strains = assay: MIC testing (CLSI M27-A3); format: cell-based
Fusarium strains [19] = assay: MFC determination, Table 17; format: cell-based, Fusarium spp.; details: Fusarium strains (Table 17)
C. albicans SC5314 [20] = assay: In vitro activity (MIC) against the infecting strain, Example 18; format: cell-based, Candida albicans
[21] = Fluconazole-resistant C. albicans n = 7
[22] = Fluconazole-susceptible C. albicans n = 13

`C[C@@H]1[C@H](O)[C@@H](C)/C=C/C=C/C=C/C=C/C=C/C=C/C=C/[C@H](O[C@@H]2O[C@H](C)[C@@H](O)[C@H](N)[C@@H]2O)C[C@@H]2O[C@](O)(C[C@@H](O)C[C@@H](O)[C@H](O)CC[C@@H](O)C[C@@H](O)CC(=O)O[C@H]1C)C[C@H](O)[C@H]2C(=O)O` [Amphotericin B] was tested, and the MFC (C. albicans SC5314 [1]) was 0.25 mg/L (≈ 0.271 µM), the MFC50 ([2]; kills 50% of strains) was > 8 mg/L and the MFC90 ([2]; kills 90% of strains) was > 8 mg/L. For the same compound, the “MIC Range” value ([3]; in µg/mL) was 1-2, the MIC50 ([3]; inhibits 50% of strains) was 1 mg/L (≈ 1.08 µM) and the MIC90 ([3]; inhibits 90% of strains) was 2 mg/L (≈ 2.16 µM). The “MFC Range” value (C. krusei strains [4]; C. krusei strains, in µg/mL) was 1, the MFC50 (C. krusei strains [4]; C. krusei, kills 50% of strains) was 1 mg/L (≈ 1.08 µM) and the MFC90 (C. krusei strains [4]; C. krusei, kills 90% of strains) was 1 mg/L (≈ 1.08 µM). For the same compound, the “MIC Range” value (Penicillium strains [5]; Penicillium strains, in µg/mL) was 0.5-4, the MIC50 (Penicillium strains [5]; Penicillium, inhibits 50% of strains) was 1 mg/L (≈ 1.08 µM) and the MIC90 (Penicillium strains [5]; Penicillium, inhibits 90% of strains) was 2 mg/L (≈ 2.16 µM). It also gave an MFC50 ([6]; kills 50% of strains) of 1 mg/L (≈ 1.08 µM), an MFC90 ([6]; kills 90% of strains) of 8 mg/L (≈ 8.66 µM) and an MFC50 (Penicillium strains [7]; kills 50% of strains) of 4 mg/L (≈ 4.33 µM). For the same compound, the MFC90 (Penicillium strains [7]; kills 90% of strains) was > 8 mg/L, the “MFC Range” value (C. tropicalis; C. tropicalis strains, in µg/mL) was 0.25-1 and the MFC50 (C. tropicalis; C. tropicalis, kills 50% of strains) was 0.5 mg/L (≈ 0.541 µM). For the same compound, the MFC90 (C. tropicalis; C. tropicalis, kills 90% of strains) was 1 mg/L (≈ 1.08 µM), the MFC50 ([8]; kills 50% of strains) was > 32 mg/L and the MFC90 ([8]; kills 90% of strains) was > 32 mg/L. The MFC50 ([9]; kills 50% of strains) was > 8 mg/L, the MFC90 ([9]; kills 90% of strains) was > 8 mg/L and the “MIC Range” value (all Candida strains; in µg/mL) was 0.125-1. For the same compound, the MIC50 (all Candida strains; inhibits 50% of strains) was 0.5 mg/L (≈ 0.541 µM), the MIC90 (all Candida strains; inhibits 90% of strains) was 0.5 mg/L (≈ 0.541 µM) and the “MFC Range” value (Candida albicans [10]; [21]) was 0.5-1. The “MFC Range” value (Candida albicans [10]; [22]) was 0.125-1, the MFC50 (Candida albicans [10]; Fluconazole-susceptible C. albicans n = 13, kills 50% of strains) was 0.25 mg/L (≈ 0.271 µM) and the MFC90 (Candida albicans [10]; Fluconazole-susceptible C. albicans n = 13, kills 90% of strains) was 1 mg/L (≈ 1.08 µM). The “MIC Range” value (Fusarium strains [11]; in µg/mL) was 0.5-2, the MIC50 (Fusarium strains [11]; inhibits 50% of strains) was 1 mg/L (≈ 1.08 µM) and the MIC90 (Fusarium strains [11]; inhibits 90% of strains) was 2 mg/L (≈ 2.16 µM). For the same compound, the “MIC Range” value ([12]; in µg/mL) was 0.25-16, the MIC50 ([12]; inhibits 50% of strains) was 1 mg/L (≈ 1.08 µM) and the MIC90 ([12]; inhibits 90% of strains) was 8 mg/L (≈ 8.66 µM). The MFC50 ([13]; kills 50% of strains) was 8 mg/L (≈ 8.66 µM), the MFC90 ([13]; kills 90% of strains) was > 32 mg/L and the “MIC Range” value ([14]; in µg/mL) was 1-8. It also gave an MIC50 ([14]; inhibits 50% of strains) of 8 mg/L (≈ 8.66 µM), an MIC90 ([14]; inhibits 90% of strains) of 8 mg/L (≈ 8.66 µM) and an MFC50 ([15]; kills 50% of strains) of 2 mg/L (≈ 2.16 µM). The MFC90 ([15]; kills 90% of strains) was > 8 mg/L, the “MFC Range” value (C. parapsilosis; C. parapsilosis strains, in µg/mL) was 0.5-2 and the MFC50 (C. parapsilosis; C. parapsilosis, kills 50% of strains) was 1 mg/L (≈ 1.08 µM). The MFC90 (C. parapsilosis; C. parapsilosis, kills 90% of strains) was 1 mg/L (≈ 1.08 µM), the “MIC Range” value (Cr. neoformans strains; Cr. neoformans strains, 72 h, in µg/mL) was 0.06-1 and the MIC50 (Cr. neoformans strains; Cr. neoformans, inhibits 50% of strains) was 0.25 mg/L (≈ 0.271 µM). For the same compound, the MIC90 (Cr. neoformans strains; Cr. neoformans, inhibits 90% of strains) was 0.5 mg/L (≈ 0.541 µM), the “MIC Range” value ([16]; in µg/mL) was 0.25-16 and the MIC50 ([16]; inhibits 50% of strains) was 8 mg/L (≈ 8.66 µM). For the same compound, the MIC90 ([16]; inhibits 90% of strains) was 8 mg/L (≈ 8.66 µM), the “MIC Range” value (C. krusei strains [17]; C. krusei strains, in µg/mL) was 0.5-1 and the MIC50 (C. krusei strains [17]; C. krusei, inhibits 50% of strains) was 0.5 mg/L (≈ 0.541 µM). For the same compound, the MIC90 (C. krusei strains [17]; C. krusei, inhibits 90% of strains) was 1 mg/L (≈ 1.08 µM), the “MIC Range” value (Candida albicans [18]; [21]) was 0.25-1 and the “MIC Range” value (Candida albicans [18]; [22]) was 0.125-0.5. For the same compound, the MIC50 (Candida albicans [18]; Fluconazole-susceptible C. albicans n = 13, inhibits 50% of strains) was 0.25 mg/L (≈ 0.271 µM), the MIC90 (Candida albicans [18]; Fluconazole-susceptible C. albicans n = 13, inhibits 90% of strains) was 0.5 mg/L (≈ 0.541 µM) and the “MIC Range” value (C. glabrata strains; C. glabrata strains, in µg/mL) was 0.125-1. For the same compound, the MIC50 (C. glabrata strains; C. glabrata, inhibits 50% of strains) was 0.5 mg/L (≈ 0.541 µM), the MIC90 (C. glabrata strains; C. glabrata, inhibits 90% of strains) was 0.5 mg/L (≈ 0.541 µM) and the “MFC Range” value (Fusarium strains [19]; in µg/mL) was 1-4. For the same compound, the MFC50 (Fusarium strains [19]; kills 50% of strains) was 2 mg/L (≈ 2.16 µM), the MFC90 (Fusarium strains [19]; kills 90% of strains) was 2 mg/L (≈ 2.16 µM) and the MIC (C. albicans SC5314 [20]) was 0.125 mg/L (≈ 0.135 µM).
